Reference: paper PMC9403029, “Identifying Novel Drug Targets by iDTPnd: A Case Study of Kinase Inhibitors” (Genomics, Proteomics & Bioinformatics, 2021)
Values belong to the compound of their own block, whether it stands above or below them.

Legend:
[1] = tested on: CYP2A6; parameters: method as in earlier work; conditions: FDA Orange Books ref 65, 66; cited from earlier work
[2] = tested on: CYP2E1; parameters: method as in earlier work; conditions: FDA Orange Books ref 65, 66; cited from earlier work
[3] = tested on: CYP1A2; parameters: method as in earlier work; conditions: FDA Orange Books ref 65, 66; cited from earlier work
[4] = target: T1, ERα (Homo sapiens, UniProt P03372); conditions: MST
T1 sequence (P03372 1-595): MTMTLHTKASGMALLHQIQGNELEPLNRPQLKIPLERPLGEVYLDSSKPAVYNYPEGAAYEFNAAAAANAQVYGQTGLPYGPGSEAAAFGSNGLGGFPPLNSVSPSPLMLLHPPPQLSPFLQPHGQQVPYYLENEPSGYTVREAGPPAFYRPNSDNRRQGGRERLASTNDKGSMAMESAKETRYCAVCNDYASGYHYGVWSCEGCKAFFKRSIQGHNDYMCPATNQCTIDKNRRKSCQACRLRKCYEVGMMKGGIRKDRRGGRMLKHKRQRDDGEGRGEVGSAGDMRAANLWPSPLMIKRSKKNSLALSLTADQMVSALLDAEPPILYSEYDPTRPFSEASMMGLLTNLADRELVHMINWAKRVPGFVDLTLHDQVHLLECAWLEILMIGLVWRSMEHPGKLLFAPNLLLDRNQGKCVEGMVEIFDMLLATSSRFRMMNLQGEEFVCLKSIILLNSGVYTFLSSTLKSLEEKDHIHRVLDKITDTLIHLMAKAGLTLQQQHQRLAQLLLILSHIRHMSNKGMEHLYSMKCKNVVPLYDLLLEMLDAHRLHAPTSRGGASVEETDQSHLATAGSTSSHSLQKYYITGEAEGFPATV

SMILES: Cc1nc(Nc2ncc(C(=O)Nc3c(C)cccc3Cl)s2)cc(N2CCN(CCO)CC2)n1 [Dasatinib, dasatinib]
IC50 [1]: 35 µM
IC50 [2]: > 50 µM

SMILES: Cc1ccc(Nc2nccc(N(C)c3ccc4c(C)n(C)nc4c3)n2)cc1S(N)(=O)=O [Pazopanib, pazopanib]
IC50 [3]: 16 µM

interaction with ERα at detectable levels [4]: did not interact
SMILES: CNC(=O)c1cc(Oc2ccc(NC(=O)Nc3ccc(Cl)c(C(F)(F)F)c3)cc2)ccn1 [Sorafenib, sorafenib]
